Test results as given in patent US20230126447A1, “OCULAR DRUG DEPOT FOR COMPLEMENT-MEDIATED DISORDERS” (priority 2020, published 2023).
Like-named read-outs stand apart in the source and are kept apart here.

Test: Ocular tissue and plasma pharmacokinetics, 15 mg/kg single and BID oral, Dutch Belted rabbits (Example 3/5)
Type: in vivo
Conditions: Dutch Belted, rabbit, 15 mg/kg; for MRT inf / MRT last / half-life / Cmax: Iris-Ciliary Body; for Cmax: read-out: Cmax
Procedure: Study design including group designation and dose levels are outlined in Table 4. […] Fifteen Dutch Belted and 5 New Zealand White rabbits were used as un-dosed controls. […] The dose volume was 5 mL/kg/dose for all groups. Safety was assessed with toxicological and ophthalmic examinations including slit lamp biomicroscopy, indirect ophthalmoscopy, rebound tonometry, and ultrasonic corneal pachymetry.
Analyst® software (Version 1.6.2) was used to capture the LC-MS/MS data and integrate the peak areas. Calibration standards and QCs were prepared in a blank solution of 75%:25% acetonitrile:water (v:v), ranging from 10 ng/mL to 10,000 ng/mL. Matrix matched standard and QC samples were prepared by mixing 2 μL of standard or QC sample above with 18 μL of appropriate ocular tissue or plasma. The final calibration standards ranged from 1 ng/mL to 1000 ng/mL. All plasma, retina, choroid-RPE, optic nerve, and vitreous humor samples were analyzed in a single run. Iris-ciliary body samples were analyzed in two runs due to a need for sample dilution. […] Dilution QCs were prepared at 5000 ng/mL where appropriate. Two sets of standards were used to bracket the analytical run at the beginning and end of the run. Three sets of QCs were included the analytical runs. All concentrations in ocular matrices are reported as ng/g based on the assumed density of 1 g/mL.
1, 6, 24, 96, 168, and 240 hours post-dose on Day 15, with the eyes collected at the same time as blood sampling. A single blood sample was taken from Groups 4 and 5 at sacrifice. Plasma, vitreous humor (VH), retina, choroid-retina pigmented epithelium (Choroid-RPE), optic nerve (ON), and iris-ciliary body (I-CB) were analyzed by LC-MS/MS to quantify test article concentrations. The lower limit of quantitation (LLOQ) in plasma and vitreous humor was 1.0 ng/mL. The LLOQ was 6.0 ng/g in retina, Choroid-RPE, and I-CB and the optic nerve LLOQ was 15 ng/g, assuming tissue density of 1 g/mL where relevant.
Study design including group designation and dose levels are outlined in Table 18.

[1] = iris-ciliary body, po, DB rabbit, 15 mg/kg BID, Day 15
[2] = iris-ciliary body, po, DB rabbit, 15 mg/kg single dose, Day 1

Compound: CC(=O)c1nn(CC(=O)N2C[C@H](F)C[C@H]2C(=O)Nc2cccc(Br)n2)c2ccc(-c3cnc(C)nc3)cc12 [Compound 1, (2S,4R)-1-(2-(3-Acetyl-5-(2-methylpyrimidin-5-yl)-1H-indazol-1-yl)acetyl)-N-(6-bromopyridin-2-yl)-4-fluoropyrrolidine-2-carboxamide]
- concentration at 0 h (iris-ciliary body, po, DB rabbit, 15 mg/kg BID oral, Day 15, 0 h, read-out: Mean Iris-Ciliary Body concentration): 2900 ng/g
- concentration at 1 h (iris-ciliary body, po, DB rabbit, 15 mg/kg BID oral, Day 15, 1 h, read-out: Mean Iris-Ciliary Body concentration): 4920 ng/g
- concentration at 6 h (iris-ciliary body, po, DB rabbit, 15 mg/kg BID oral, Day 15, 6 h, read-out: Mean Iris-Ciliary Body concentration): 3510 ng/g
- concentration at 24 h (iris-ciliary body, po, DB rabbit, 15 mg/kg BID oral, Day 15, 24 h, read-out: Mean Iris-Ciliary Body concentration): 1640 ng/g
- concentration at 96 h (iris-ciliary body, po, DB rabbit, 15 mg/kg BID oral, Day 15, 96 h, read-out: Mean Iris-Ciliary Body concentration): 1010 ng/g
- concentration at 168 h (iris-ciliary body, po, DB rabbit, 15 mg/kg BID oral, Day 15, 168 h, read-out: Mean Iris-Ciliary Body concentration): 612 ng/g
- concentration at 240 h (iris-ciliary body, po, DB rabbit, 15 mg/kg BID oral, Day 15, 240 h, read-out: Mean Iris-Ciliary Body concentration): 408 ng/g
- concentration at 1 h (iris-ciliary body, po, DB rabbit, 15 mg/kg single oral dose, Day 1, 1 h, read-out: Mean Iris-Ciliary Body concentration): 1010 ng/g
- concentration at 6 h (iris-ciliary body, po, DB rabbit, 15 mg/kg single oral dose, Day 1, 6 h, read-out: Mean Iris-Ciliary Body concentration): 528 ng/g
- concentration at 24 h (iris-ciliary body, po, DB rabbit, 15 mg/kg single oral dose, Day 1, 24 h, read-out: Mean Iris-Ciliary Body concentration): 300 ng/g
- concentration at 96 h (iris-ciliary body, po, DB rabbit, 15 mg/kg single oral dose, Day 1, 96 h, read-out: Mean Iris-Ciliary Body concentration): 57.9 ng/g
- concentration at 168 h (iris-ciliary body, po, DB rabbit, 15 mg/kg single oral dose, Day 1, 168 h, read-out: Mean Iris-Ciliary Body concentration): 27.1 ng/g
- concentration at 240 h (iris-ciliary body, po, DB rabbit, 15 mg/kg single oral dose, Day 1, 240 h, read-out: Mean Iris-Ciliary Body concentration): 33.6 ng/g
- MRT inf [1]: 81.5 h
- MRT last [1]: 76.2 h
- half-life [1]: 107 h
- Cmax [1]: 4920 ng/g
- MRT inf [2]: 69 h
- MRT last [2]: 46.2 h
- half-life [2]: 56 h
- Cmax [2]: 1010 ng/g
- concentration at 0 h (plasma, po, DB rabbit, 15 mg/kg BID oral, Day 15, 0 h, read-out: Mean plasma concentration): 55.2 ng/mL
- concentration at 1 h (plasma, po, DB rabbit, 15 mg/kg BID oral, Day 15, 1 h, read-out: Mean plasma concentration): 845 ng/mL
- concentration at 6 h (plasma, po, DB rabbit, 15 mg/kg BID oral, Day 15, 6 h, read-out: Mean plasma concentration): 92.2 ng/mL
- concentration at 24 h (plasma, po, DB rabbit, 15 mg/kg BID oral, Day 15, 24 h, read-out: Mean plasma concentration): 5.6 ng/mL
- concentration at 96 h (plasma, po, DB rabbit, 15 mg/kg BID oral, Day 15, 96 h, read-out: Mean plasma concentration): 3.19 ng/mL
- concentration at 1 h (plasma, po, DB rabbit, 15 mg/kg single oral dose, Day 1, 1 h, read-out: Mean plasma concentration): 318 ng/mL
- concentration at 6 h (plasma, po, DB rabbit, 15 mg/kg single oral dose, Day 1, 6 h, read-out: Mean plasma concentration): 33.7 ng/mL
- concentration at 24 h (plasma, po, DB rabbit, 15 mg/kg single oral dose, Day 1, 24 h, read-out: Mean plasma concentration): 25.4 ng/mL
- concentration at 1 h (retina, oral, DB rabbits, Day 1, 15 mg/kg single dose, 1 hr, read-out: Mean Retina Concentration): 145 ng/g
- concentration at 6 h (retina, oral, DB rabbits, Day 1, 15 mg/kg single dose, 6 hr, read-out: Mean Retina Concentration): 29.6 ng/g
- concentration at 24 h (retina, oral, DB rabbits, Day 1, 15 mg/kg single dose, 24 hr, read-out: Mean Retina Concentration): 24.7 ng/g
- concentration at 0 h (retina, oral, DB rabbits, Day 15, 15 mg/kg BID, 0 hr, read-out: Mean Retina Concentration): 114 ng/g
- concentration at 1 h (retina, oral, DB rabbits, Day 15, 15 mg/kg BID, 1 hr, read-out: Mean Retina Concentration): 576 ng/g
- concentration at 6 h (retina, oral, DB rabbits, Day 15, 15 mg/kg BID, 6 hr, read-out: Mean Retina Concentration): 237 ng/g
- concentration at 24 h (retina, oral, DB rabbits, Day 15, 15 mg/kg BID, 24 hr, read-out: Mean Retina Concentration): 74.3 ng/g
- concentration at 96 h (retina, oral, DB rabbits, Day 15, 15 mg/kg BID, 96 hr, read-out: Mean Retina Concentration): 28.1 ng/g
- concentration at 168 h (retina, oral, DB rabbits, Day 15, 15 mg/kg BID, 168 hr, read-out: Mean Retina Concentration): 36.5 ng/g
- concentration at 240 h (retina, oral, DB rabbits, Day 15, 15 mg/kg BID, 240 hr, read-out: Mean Retina Concentration): 25.3 ng/g
